Measured values: patent US10350176B2 (priority 2013, dated 2019)
Read-outs that look alike come from different tables or passages of the source.

Columns and labels:
[1] = test system: Leishmania major in promastigote form; experiment: Promastigote growth inhibition assay (CellTiter-Blue); format: cell-based; details: 48 hours incubation; number of viable promastigotes reduced by 50%; read-out: L. major, in promastigote form (IC50)
Protocol: Antiparasitic activity in culture of promastigotes (insect form) was measured using a standard microdiluting method, determining the minimum inhibitory concentration (MIC) of the test sample, which leads to inhibition of parasite growth.
For promastigote growth inhibition assays the subculture 2 of L. major was cultured in Schneider's insect medium (Sigma, St. Louis, Mo., cat. No. S0146) supplemented with 50 μm/ml gentamicin (Sigma, St. Louis, Mo., cat. No. G1272), 63.7 μg/ml penicillin G (Sigma, St. Louis, Mo., cat. No. PENK), 100 μg/ml streptomycin (Sigma, St. Louis, Mo., cat. no. S6501), 2% human urine and 10% heat-inactivated fetal bovine serum (Sigma, St. Louis, Mo., cat. No. F2442).
Leishmania promastigotes in the logarithmic growth phase were dispensed into black 384-well plates (Corning, New York, N.Y., cat. No. 3571) at a concentration of 15,000 parasites/μl/well using a Multidrop Combi instrument (Thermo Fisher Scientific Inc., Waltham, Mass.). […] The metabolic capacity of the parasite was measured after 2.5 hours of incubation using the CellTiter-Blue® Reagent (Promega Corporation, Madison, Wis., cat. No. G8082) using EnVision Multilabel Reader (PerkinElmer Inc., Waltham, Mass.). Data were analyzed using non-linear regression (log (inhibitor) vs. response-variable slope). […]

[2] = test system: L. major, antimony salts resistant, in promastigote form; experiment: Promastigote growth inhibition assay, strain resistant to antimony salts; format: cell-based, Leishmania major; details: 48 hours incubation
Protocol: Leishmania promastigotes in the logarithmic growth phase were dispensed into black 384-well plates (Corning, New York, N.Y., cat. No. 3571) at a concentration of 15,000 parasites/μl/well using a Multidrop Combi instrument (Thermo Fisher Scientific Inc., Waltham, Mass.). Immediately thereafter DPI (1 nM-500 nM) or amphotericin B (20 nM-10 μM) were added using “pitool” connected to JANUS® Automated Workstation (PerkinElmer Inc., Waltham, Mass.) and incubated for 48 hours. The metabolic capacity of the parasite was measured after 2.5 hours of incubation using the CellTiter-Blue® Reagent (Promega Corporation, Madison, Wis., cat. No. G8082) using EnVision Multilabel Reader (PerkinElmer Inc., Waltham, Mass.). Data were analyzed using non-linear regression (log (inhibitor) vs. response-variable slope). Preparation of the graphs and IC50 calculation were performed using GraphPad Prism 5 software (GraphPad Software, USA). The IC50 value was calculated by non-linear regression method as the concentration of DPI in which the number of viable promastigotes was reduced by 50% (values given below in Table 1).

[3] = test system: Leishmania major in amastigote form; experiment: Cytotoxic effect on intracellular amastigotes in macrophages (flow cytometry, cell smears); format: cell-based; details: concentration at which number of infected macrophages decreased by 50%; 48 hours co-incubation
Protocol: Macrophage precursors were isolated from bone marrow and incubated for 7 days at 37° C. and 5% CO2 in DMEM supplemented with supernatant of L929 cells (20 percent by volume) containing M-CSF. After differentiation the macrophages were infected with E-GFP-L. major in stationary phase of growth at a ratio of 1:10. Then the macrophages were incubated in DMEM supplemented with the supernatant of L929 cells (20% volume) containing M-CSF at 37° C. and 5% CO2. After 24 hours, the medium containing the extracellular parasites was discarded and the plates were washed 3 times with HBSS medium (Hanks' Balanced Salt Solution, Sigma, St. Louis, Mo., cat. No. H9269). […]
The samples were analyzed on a FACSCalibur flow cytometer (Becton, Dickinson and Company, Franklin Lakes, N.J.) using CellQuest Pro software (Becton, Dickinson and Company, Franklin Lakes, N.J.). […] The results were measured for 10,000 macrophages in the first experiment and for 20,000 macrophages in the second experiment. […]
Smears were stained with Giemsa (Sigma, St. Louis, Mo., cat. No. 11700) and analysed by fluorescence microscopy Leica6000DM (Leica Microsystems GmbH, Wetzlar, Germany) at a magnification 400×. The total number of parasites in 500 macrophages was determined. […]

[4] = test system: CCD 841 (intestinal epithelial cells); details: DPI 9.8 nM-1.25 μM; 48 hours incubation
Protocol: (§1) Human cells CCD 841 (intestinal epithelial cells) and MRC5 (fetal lung fibroblasts) in appropriate growth media were dispensed into black 384-well plates (Corning, cat. No. 3571) at a density of 15,000 cells/25 μl/well using a Multidrop Combi (Thermo Scientific). After 48 hours incubation at 37° C. and 5% CO2, cell viability was determined using a commercial assay CellTiter Blue Cell Viability Assay (Promega, cat. No. G8082). […] Fluorescence intensity was measured by the detector (reader) EnVision (Perkin Elmer), and measured data were analysed using the software Prism5 (GraphPad Software, Inc.).

[5] = test system: Plasmodium falciparum; details: kills Plasmodium falciparum; Yuan et al. Nat Chem Biol 2009; cited from earlier work
[6] = test system: Leishmania major; details: primary screening, library compounds at 1 μM
Protocol: The compounds were screened for growth inhibition of the parasite Leishmania major.
The compounds were reformatted into 384-well polypropylene plates (Corning, cat. No. 3657) at a final concentration of 1 μM in DMSO and used to screen the growth inhibition of the parasite Leishmania major.

[7] = test system: MRC5 (fetal lung fibroblasts); details: DPI 9.8 nM-1.25 μM; 48 hours incubation
Protocol: as §1

| Structure (SMILES) | IC50 [1] | IC50 [2] | L. major, in intracellular amastigote form (LD50, μM) [3] | viability of human CCD 841 cells [4] | IC50 [5] | growth inhibition of the parasite Leishmania major [6] | growth inhibition of the parasite Leishmania major ([6]; listed as diphenyleneiodonium (DPI)) | viability of human MRC5 cells [7] |
| --- | --- | --- | --- | --- | --- | --- | --- | --- |
| C[C@@H]1[C@H](O)[C@@H](C)/C=C/C=C/C=C/C=C/C=C/C=C/C=C/[C@H](O[C@@H]2O[C@H](C)[C@@H](O)[C@H](N)[C@@H]2O)C[C@@H]2O[C@](O)(C[C@@H](O)C[C@@H](O)[C@H](O)CC[C@@H](O)C[C@@H](O)CC(=O)O[C@H]1C)C[C@H](O)[C@H]2C(=O)O [amphotericin B, reference compound] | 39 nM | 43 nM | 0.143 µM |  |  |  |  |  |
| c1ccc2c(c1)[I+]c1ccccc1-2 [DPI, [1,1′-biphenyl]-2,2′-diyliodonium] | 10 nM | 15 nM | 0.066 µM | no negative effect on the viability | 0.06 to 1 nM | potent inhibitor of the growth of Leishmania major | effective inhibitor | no negative effect on the viability |
